Measurements reported in patent publication US12622916B2, “Use of H3K9me3 modulation for enhancing cognitive function” (THE REGENTS OF THE UNIVERSITY OF CALIFORNIA, priority 2015, dated 2026).
Entries after “also recorded” stand apart in the source; their conditions may differ.

Tests used:
[1] = tested on: 14 DIV hippocampal neurons; test: PSD-95 immunoreactivity and dendritic F-actin staining in hippocampal neurons; type: cell-based; conditions: 20 nM, 24 hours
Description: Neurons were stained with antibodies against PSD-95 (red) and MAP2 (green). Scale bars: 10 μm, top panel; 2 μm, bottom panel.
Note presence of numerous puncta marking presence of many spines. Top panel: Control, bottom panel: ETP treated neurons. Scale bar: 2 μm.

[2] = molecular target: DNA methyltransferase DNMT1 (Homo sapiens, UniProt P26358); test: Inhibitory activity towards DNA methyltransferase DNMT1; type: biochemical
Chain of DNA methyltransferase DNMT1 (P26358 whole entry): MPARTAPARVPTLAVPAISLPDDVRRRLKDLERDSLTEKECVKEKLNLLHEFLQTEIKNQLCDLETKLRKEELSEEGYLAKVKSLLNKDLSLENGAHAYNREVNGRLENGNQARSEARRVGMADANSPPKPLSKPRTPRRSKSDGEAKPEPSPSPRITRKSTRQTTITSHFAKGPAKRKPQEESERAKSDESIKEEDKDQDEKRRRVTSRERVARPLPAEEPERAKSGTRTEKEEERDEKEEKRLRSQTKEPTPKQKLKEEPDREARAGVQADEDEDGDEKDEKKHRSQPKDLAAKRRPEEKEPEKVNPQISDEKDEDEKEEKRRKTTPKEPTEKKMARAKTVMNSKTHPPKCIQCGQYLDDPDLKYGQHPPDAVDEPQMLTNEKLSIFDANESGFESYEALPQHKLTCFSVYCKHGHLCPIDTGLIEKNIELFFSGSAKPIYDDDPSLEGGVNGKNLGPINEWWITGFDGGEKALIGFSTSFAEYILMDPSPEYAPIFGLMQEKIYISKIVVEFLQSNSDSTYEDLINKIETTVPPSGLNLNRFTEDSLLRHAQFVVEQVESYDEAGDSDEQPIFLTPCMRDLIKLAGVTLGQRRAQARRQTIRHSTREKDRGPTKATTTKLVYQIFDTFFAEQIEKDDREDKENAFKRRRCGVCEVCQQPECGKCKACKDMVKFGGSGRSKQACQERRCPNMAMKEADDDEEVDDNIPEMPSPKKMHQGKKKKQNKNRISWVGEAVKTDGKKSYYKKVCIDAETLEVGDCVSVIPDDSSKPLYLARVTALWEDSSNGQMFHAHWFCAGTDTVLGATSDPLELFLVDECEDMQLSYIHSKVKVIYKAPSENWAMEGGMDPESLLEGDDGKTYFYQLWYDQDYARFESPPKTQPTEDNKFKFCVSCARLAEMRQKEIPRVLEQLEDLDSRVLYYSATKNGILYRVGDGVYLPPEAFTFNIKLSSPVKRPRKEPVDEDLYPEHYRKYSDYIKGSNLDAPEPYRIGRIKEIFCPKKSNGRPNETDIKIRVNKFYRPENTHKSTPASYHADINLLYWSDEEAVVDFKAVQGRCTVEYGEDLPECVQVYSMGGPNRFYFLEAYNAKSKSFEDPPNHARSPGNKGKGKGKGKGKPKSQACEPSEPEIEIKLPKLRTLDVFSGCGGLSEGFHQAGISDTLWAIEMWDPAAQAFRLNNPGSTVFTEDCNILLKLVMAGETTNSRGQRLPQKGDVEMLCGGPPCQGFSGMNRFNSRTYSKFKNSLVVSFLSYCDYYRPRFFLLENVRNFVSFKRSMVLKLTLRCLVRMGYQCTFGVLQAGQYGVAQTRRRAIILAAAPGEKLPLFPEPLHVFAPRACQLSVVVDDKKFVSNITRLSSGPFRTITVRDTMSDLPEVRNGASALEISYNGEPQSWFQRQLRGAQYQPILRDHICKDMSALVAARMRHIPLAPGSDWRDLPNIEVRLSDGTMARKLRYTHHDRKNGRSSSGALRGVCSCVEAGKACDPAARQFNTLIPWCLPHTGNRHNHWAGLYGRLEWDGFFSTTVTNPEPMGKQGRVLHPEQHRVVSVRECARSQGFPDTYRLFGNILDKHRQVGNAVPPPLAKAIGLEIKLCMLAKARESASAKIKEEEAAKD

[3] = tested on: Arc; test: Arc changes after ETP69 treatment (data not shown); type: in vivo, mice
[4] = tested on: H3K9me3; test: H3K9me3 level in cultured hippocampal neurons by Western blotting; type: cell-based
Method: Next, we examined the effect of ETP69 on H3K9me3 levels in cultured hippocampal neurons. […] FIGS. 14A-B are illustrations of the effect of ETP69 on H3K9me3 levels in 14 DIV hippocampal neurons (FIG. 14A—gel image; FIG. 14B—quantification, n=3, *, p<0.05). As the illustrations show, ETP69 treatment (24 hours) decreased H3K9me3 level measured by Western blotting.

[5] = molecular target: histone acetyltransferase p300 (Homo sapiens, UniProt Q09472); test: Inhibitory activity towards histone acetyltransferase p300; type: biochemical
Chain of histone acetyltransferase p300 (Q09472 whole entry, species assumed): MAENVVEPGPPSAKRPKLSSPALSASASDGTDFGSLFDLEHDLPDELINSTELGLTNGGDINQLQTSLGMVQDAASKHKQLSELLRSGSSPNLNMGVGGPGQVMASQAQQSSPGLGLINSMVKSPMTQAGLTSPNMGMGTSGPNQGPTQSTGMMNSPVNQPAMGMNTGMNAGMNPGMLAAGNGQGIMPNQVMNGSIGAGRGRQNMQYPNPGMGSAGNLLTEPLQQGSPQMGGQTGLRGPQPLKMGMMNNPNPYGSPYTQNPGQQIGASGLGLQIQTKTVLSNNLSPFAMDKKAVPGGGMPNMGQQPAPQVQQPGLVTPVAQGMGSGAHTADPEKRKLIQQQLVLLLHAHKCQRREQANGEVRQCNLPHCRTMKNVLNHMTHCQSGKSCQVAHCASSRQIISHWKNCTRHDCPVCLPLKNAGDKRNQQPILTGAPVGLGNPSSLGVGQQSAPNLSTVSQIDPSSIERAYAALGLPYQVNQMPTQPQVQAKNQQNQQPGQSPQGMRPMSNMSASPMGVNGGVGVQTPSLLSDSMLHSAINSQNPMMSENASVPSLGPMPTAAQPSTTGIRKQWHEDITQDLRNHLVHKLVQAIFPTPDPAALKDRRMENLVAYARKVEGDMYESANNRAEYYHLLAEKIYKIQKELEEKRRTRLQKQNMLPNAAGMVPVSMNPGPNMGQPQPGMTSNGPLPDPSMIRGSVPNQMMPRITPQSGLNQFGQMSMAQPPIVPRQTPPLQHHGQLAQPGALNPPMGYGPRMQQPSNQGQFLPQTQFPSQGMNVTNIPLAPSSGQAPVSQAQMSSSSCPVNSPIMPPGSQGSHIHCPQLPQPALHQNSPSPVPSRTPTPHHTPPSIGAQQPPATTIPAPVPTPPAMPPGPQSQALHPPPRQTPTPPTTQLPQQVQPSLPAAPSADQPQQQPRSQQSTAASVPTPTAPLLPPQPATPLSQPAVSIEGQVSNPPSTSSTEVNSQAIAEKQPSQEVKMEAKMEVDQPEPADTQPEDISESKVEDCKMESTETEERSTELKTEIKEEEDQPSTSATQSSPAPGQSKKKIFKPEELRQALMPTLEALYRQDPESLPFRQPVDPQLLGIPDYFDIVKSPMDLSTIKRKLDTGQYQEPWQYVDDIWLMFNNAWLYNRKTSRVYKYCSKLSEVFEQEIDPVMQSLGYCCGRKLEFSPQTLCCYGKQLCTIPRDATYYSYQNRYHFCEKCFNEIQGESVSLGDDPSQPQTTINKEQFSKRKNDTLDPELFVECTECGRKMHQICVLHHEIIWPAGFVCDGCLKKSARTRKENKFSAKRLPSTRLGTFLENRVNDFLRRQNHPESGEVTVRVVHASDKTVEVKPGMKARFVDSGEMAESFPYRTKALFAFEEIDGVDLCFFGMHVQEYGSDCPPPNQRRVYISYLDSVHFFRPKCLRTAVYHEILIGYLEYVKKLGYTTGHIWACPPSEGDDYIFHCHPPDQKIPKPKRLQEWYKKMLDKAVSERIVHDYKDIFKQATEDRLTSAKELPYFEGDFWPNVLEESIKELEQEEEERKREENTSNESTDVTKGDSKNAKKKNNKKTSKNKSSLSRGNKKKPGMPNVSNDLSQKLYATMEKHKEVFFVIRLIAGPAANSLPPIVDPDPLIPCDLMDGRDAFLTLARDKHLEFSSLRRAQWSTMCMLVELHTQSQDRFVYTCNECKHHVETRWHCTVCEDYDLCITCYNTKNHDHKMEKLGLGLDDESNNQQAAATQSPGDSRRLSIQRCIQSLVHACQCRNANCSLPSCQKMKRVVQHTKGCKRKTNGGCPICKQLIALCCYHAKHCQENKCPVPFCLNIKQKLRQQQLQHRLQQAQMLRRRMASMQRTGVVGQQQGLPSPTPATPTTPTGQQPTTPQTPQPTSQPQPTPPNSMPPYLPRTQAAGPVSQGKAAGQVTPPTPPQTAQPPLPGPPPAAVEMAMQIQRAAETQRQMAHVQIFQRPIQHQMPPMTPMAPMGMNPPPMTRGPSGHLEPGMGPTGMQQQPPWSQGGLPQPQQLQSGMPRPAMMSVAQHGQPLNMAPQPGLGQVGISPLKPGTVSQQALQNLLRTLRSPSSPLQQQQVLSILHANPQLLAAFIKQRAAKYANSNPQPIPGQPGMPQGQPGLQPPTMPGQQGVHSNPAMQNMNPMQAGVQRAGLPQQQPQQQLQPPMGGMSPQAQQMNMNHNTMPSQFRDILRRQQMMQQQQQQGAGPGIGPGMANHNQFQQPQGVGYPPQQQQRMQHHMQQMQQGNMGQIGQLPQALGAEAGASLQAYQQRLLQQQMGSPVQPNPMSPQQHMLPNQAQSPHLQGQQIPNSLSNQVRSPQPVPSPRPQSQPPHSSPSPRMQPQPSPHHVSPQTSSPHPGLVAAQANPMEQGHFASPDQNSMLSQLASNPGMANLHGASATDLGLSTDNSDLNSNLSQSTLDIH
Description: In accordance with one or more embodiments of the present invention, the role of H3K9me3 in learning and memory in an animal model of aging using a newly developed analog of the epidithiodiketopiperazine alkaloid chaetocin A called ETP69, illustrated in FIG. 1, is studied.

[6] = tested on: H3K9me3; test: Histone H3K9 trimethylation level in brain tissue extracts of aged mice; type: in vivo
[7] = tested on: aged C57Bl/6J male mice; test: Object location memory (OLM) task in aged mice; type: in vivo; conditions: for OLM retention: memory performance (exploration of novel versus familiar location): retention test 24 hours later
Method: Object Location Memory (OLM): Training and testing procedures were performed using a standard OLM protocol. Briefly, 22 aged mice and 18 young mice were handled for about 2-3 minutes per day for 5 days, followed by habituation to the experimental apparatus (white rectangular open field measuring 30×23×21.5 cm) for 5 min per day for 5 consecutive days before training.
Dose Response in OLM: On the test day mice were given 3 minutes of habituation (in an empty test arena) followed by i.p. injection of ETP69 (10 mg/kg (n=8) or 20 mg/kg (n=7)) or vehicle (n=7). Mice were then given a 3-min acquisition trial (with 2 similar objects placed in the arena opposite each other) 30 minutes after the i.p. injection of drug or vehicle and all animals were then returned to their home cages for a 24 hour inter-trial interval. Twenty-four hours later, a 3-minute retention test was administered, where one object was moved to a novel location and the amount of time the animals spent exploring the novel versus familiar location was recorded in order to evaluate the dose response in the OLM task. Since animals that had received 10 mg/kg performed better than other groups in the OLM task, 10 mg/kg was used for the remainder of the study. This OLM paradigm has previously shown to be subthreshold for learning.
(§1) Acquisition (pre-training) or Consolidation (post-training): In another test, aimed to determine the efficacy of the compound in pre and post training paradigms, the same group of 22 aged animals were retested on the OLM task 3 weeks after the first test. To determine whether the drug impacted acquisition or consolidation mechanisms, mice were injected with the 10 mg/kg compound (i.p. n=7) or vehicle (n=8). Animals were sacrificed right after retention testing (i.e. 24 hours post injection), and hippocampi were removed, rapidly frozen on dry ice, and stored at −80° C. until processing for trimethylation levels and BDNF assay. FIG. 2 is a graphical representation of the effect of the drug at 10 mg/kg and 20 mg/kg (i.p) administered 30 minutes prior to acquisition phase in the novel place position task in mice. […] Data are mean±SEM; n=7 or 8/group.

[8] = tested on: CREB; test: CREB phosphorylation at Ser133 by Western blotting; type: cell-based
Description: FIG. 16 is an image illustrating ETP69 increased CREB phosphorylation at Ser133 measured by Western blotting. CREB is a transcription factor whose activation is involved in synaptic plasticity and memory formation.

[9] = tested on: BDNF; test: ELISA for BDNF protein in hippocampus; type: in vivo; conditions: aged mice; 10 mg/kg i.p. before or right after OLM acquisition; versus controls
Method: as §1
ELISA was performed using the BDNF Emax Immunoassay System (G7610, Promega) according to the manufacturer's instructions. Two sets of samples were prepared from the hippocampus of each animal, and all reactions were performed in duplicate.

[10] = tested on: aged mice; test: Unsupervised learning task (USL) in aged mice; type: in vivo; conditions: 10 mg/kg i.p.
Method: Unsupervised learning task: A new group of 12 aged animals were used for the unsupervised learning task. Procedures were adapted from published work. The unsupervised learning (USL) behavioral apparatus consisted of a large open field divided by walls into 4 chambers, all accessible by small entrances in each dividing wall. The animals can also access a smaller attached enclosed dark compartment by an open entrance. After 5 days of handling, animals were injected with ETP69 (10 mg/kg, i.p.) or vehicle and placed in the video-monitored USL box for thirty minutes, and the returned to the home cage. 24 hours later the animals were placed in the USL box again and euthanized immediately after. Their brains were rapidly removed, hippocampus dissected rapidly, frozen on dry ice, and stored at −80° C. until further processing
To evaluate if H3K9me3 is implicated in measures of spatial learning and to evaluate molecular endpoints, a second series of experiments was conducted with the USL task being the behavioral endpoint. The USL task is a simple behavioral paradigm in which mice are allowed to freely explore a four-compartment environment for a specified period of time. Reduction in overall activity and exploration of the test arena over this time is considered a measure of learning and short-term memory. […]

[11] = tested on: aged mice; test: Contextual fear conditioning in aged mice; type: in vivo; conditions: 10 mg/kg i.p., versus aged controls
Method: Fear conditioning: 14 aged (18-20 months) male mice were placed in the fear-conditioning chamber were allowed to explore for 2 minutes before receiving one electric foot shocks (2 seconds, 0.2 mA). Animals were returned to the home cage 2 minutes after the foot shock.

## CN1C(=O)[C@@]23C[C@](C)(C#N)[C@H](c4ccc5c(c4)OCO5)N2C(=O)[C@]1(C)SS3 (racemic) [ETP69, Rac-(3S,6S,7S,8aS)-6-(benzo[d][1,3]dioxol-5-yl)-2,3,7-trimethyl-1,4-dioxohexahydro-6H-3,8a-epidithiopyrrolo[1,2-a]pyrazine-7-carbonitrile]
[1]
  PSD-95 immunoreactivity: increased PSD-95 immunoreactivity
  dendritic F-actin staining: increased dendritic F-actin staining
[2]
  inhibitory activity towards DNA methyltransferase DNMT1: no inhibitory activity
[3]
  changes in Arc: did not observe changes in Arc
[4]; 20 nM, 24 hours
  neuronal H3K9me3 level at 20 nM: greatest decrease
[4]; 24 hours treatment, 14 DIV hippocampal neurons
  neuronal H3K9me3 level: dose-dependent decrease
[5]
  inhibitory activity towards histone acetyltransferase p300: no inhibitory activity
[6]; 10 mg/kg i.p., 24 hours post drug, hippocampal histone extracts
  H3K9me3 levels in hippocampus: decreases in H3K9me3 levels
[6]; ETP69-treated versus untreated, cerebellum
  H3K9me3 levels in cerebellum: no significant difference
[7]; 10 mg/kg and 20 mg/kg i.p. 30 minutes before acquisition
  OLM acquisition phase: object exploration (seconds): no difference in object exploration
[7]; 10 mg/kg i.p.
  OLM acquisition phase, pre/post-trial experiment: group differences: no significant group differences
[7]; 10 mg/kg i.p. 30 minutes before acquisition, 10 mg/kg
  OLM retention: memory performance (exploration of novel versus familiar location): explored the novel object significantly (measured in seconds) more than the familiar object; also recorded: induced memory improvements
[7]; 10 mg/kg i.p. 30 minutes prior to acquisition phase, tested 24 h
  OLM performance, pre-trial administration: improved performance in the OLM task
[7]; 10 mg/kg i.p. immediately after acquisition, tested 24 h
  OLM performance, post-trial administration: improved performance in the OLM task
[7]; 20 mg/kg i.p.
  OLM acquisition phase: total exploration time: decrease in total exploration time
[7]; 20 mg/kg i.p. 30 minutes before acquisition, 20 mg/kg
  OLM retention: memory performance (exploration of novel versus familiar location): performed similar to aged controls; also recorded: but not 20 mg/kg induced memory improvements
[8]
  phosphorylation of CREB at Ser133: increased phosphorylation
[9]
  BDNF protein levels in hippocampus: significantly elevated levels of BDNF
[10]
  USL total distance travelled over 30 minutes, Day 1 versus Day 2: significant decrease in total distance travelled
[10]; 24 hours after treatment
  USL habituation/exploration (distance travelled), Day 2 versus Day 1: significant decrease in habituation/exploration
[11]
  contextual fear conditioning performance (freezing): improved performance
